Measured values published in US12397041B2, “Vasoactive intestinal peptide release from microparticles” (UNIVERSITY OF PITTSBURGH—OF THE COMMONWEALTH SYSTEM OF …, priority 2009, dated 2025).
“Also recorded” adds a separate entry of the source. Ends that are not written are not given here.

B1: CCL22: chemokine that binds the CCR4 receptor, involved in migration of regulatory T-cells (protein, UniProt O00626 25-93, looked up)
C-C motif chemokine 22: GPYGANMEDSVCCRDYVRYRLPLRVVKHFYWTSDSCPRPGVVLLTFRDKEICADPRVPWVKMILNKLSQ

Assays:
dendritic cells = experiment: CCL22 production by dendritic cells (ELISA); assay type: cell-based, murine; settings: LPS-matured DCs, soluble VIP
Procedure: Dendritic cells were isolated from murine bone marrow and cultured following standard procedures.
(§1) In the first two experiments, both GM-CSF and IL-4 were added to DC media (modified RPMI 1640) of bone marrow cell cultures during media changes on Days 0, 3 and 6. In the third experiment, the IL-4 was purposely omitted and GM-CSF was added in 5× concentration. On Day 6, CD11c+ DC cells were isolated using MACS cell sorting beads and plated in a 24-well plate at 100,000 cells/well. Five different groups of four wells each were analyzed and received treatment. […] A mature DC control group received only LPS. Three different groups were matured with LPS and received different concentrations of either soluble VIP or releasates of VIP microparticles or blank microparticles (using the 12.6 kDa polymer).
Dose Response Protocol: Soluble VIP was added in concentrations of 10^−6 M, 10^−8 M, and 10^−9 M to both immature DC groups and DCs matured with LPS. Twelve different groups were matured with LPS and received different concentrations of either blank porous, blank nonporous, VIP porous, or VIP nonporous microparticles (of the 12.6 kDa polymer). Microparticles were added in concentrations of either 2.77 mg/mL, 1.39 mg/mL, and 0.277 mg/mL. In a second DC culture, the low concentration of microparticles was reduced to 0.0556 mg/mL. […]

[1] = tested on: FoxP3, IL-10, RANKL, CCL-22 mRNA in periodontal tissues; experiment: Real-time PCR of markers in periodontal tissues of diseased mice; assay type: in vivo, mouse; settings: systemic injections at days −1, 7, 14, 21, 28
Procedure: To verify that Tregs are recruited toward microparticles that sustain release of CCL-22, formulations were administered into the periodontium of diseased mice. Briefly, mice were orally exposed to the periodontal pathogen A. actinomycetemcomitans (Aar) on day 0, and also received CCL-22 microparticles (CCL-22MPs) or blank (empty) microparticles (BlankMPs) in their periodontal pockets. Specifically, mice received microparticle injections at day −1, 10 and 20, mice treated with VIP injections received systemic injections at days −1, 7, 14, 21, 28. Untreated mice served as negative controls. At day 30, all mice were sacrificed and maxilla's were resected. […] FIG. 22A. […] Figure BIB. […] FIG. 22C.
In this experiment, artificial antigen presenting cells providing a CCL-22 controlled release formulation were injected into palatal gingival tissue of right molars of mice (n=3) at the times of −1, 10 and 20 days of periodontal infection. At 30 days, total RNA was extracted from periodontal tissues as previously described and analyzed for regulatory T-cell and periodontal disease factor. […]
Real-Time PCR Analysis. […] RealTime-PCR quantitative mRNA analyses will be done in a MiniOpticon system (BioRad, Hercules, CA), using SybrGreen Master Mix (Invitrogen), 100 nM specific primers, and 2.5 ng of cDNA in each reaction. […]

[2] = tested on: mice infected with A. actinomycetemcomitans (periodontitis); experiment: Mouse periodontitis model with CCL-22 microparticles / systemic VIP, alveolar bone resorption and Treg recruitment; assay type: in vivo
Procedure: To this end, B6 mice (n=6) were infected orally with the periodontal pathogen A. actinomycetemcomitans (Aa) and treated with microparticles containing CCL-22 (CCL-22MPs) or empty microparticles (BlankMPs) according to the schedule outlined above. Additionally vasoactive intestinal peptide (VIP) was administered intraperitoneally. Mice receiving only PBS and the thickener carboxymethyl cellulose served as controls (Untreated). Experimental treatments were administered in the periodontal pocket of the right maxilla while left maxillae were used as internal negative controls in each mouse. Alveolar bone loss was quantified as the area between the cementoenamel junction (CEJ) and the alveolar bone crest (ABC) FIG. 23, CEJ and FIG. 23A, ABC). Alveolar bone levels are shown on the left (internal control, FIG. 23A LEFT) and right (BlankMP treated, FIG. 23A RIGHT) maxilla.

FoxP3+CD4+ T-cells = experiment: Chemotaxis of CD4+ T-cells through transwells toward treated DCs, FoxP3+ by flow cytometry; assay type: cell-based, mouse; settings: LPS
Procedure: as §1
Preliminary Protocol: Soluble VIP was added to the third group in concentration of 2.5×10^−8 M. Ten milligrams of microparticles were first incubated for 4-6 hours in media and 250 μL of releasates were added to each well. […]
For chemotaxis studies, in the first two experiments, both GM-CSF and IL-4 were added to DC media (modified RPMI 1640) of bone marrow cell cultures during media changes on Days 0, 3 and 6. […] Five different groups of four wells each were analyzed and received treatment. […]
CD4+ T-cells were isolated from the spleen and lymph nodes of a mouse using Dynal beads following the lab protocol. […] T Cells that flowed through were analyzed for FoxP3+ expression using flow cytometry.

CD4+ T cells (CCR4) = experiment: In vitro transwell migration assay toward CCL22; assay type: cell-based, murine; settings: activated vs naïve CD4+ T cells
Text: (* p<0.05, one-tailed Students ‘t’ test).
Simultaneously, the ability of CCL22 to attract murine T cells was examined. Expression of chemokine receptors for CCL22 (i.e., for example, the CCR4 receptor) are known to control the ability of cells to respond to CCL22 gradients. Moreover, there is evidence that only activated T cells express the CCR4 receptor. Baatar et al., Journal of Immunology 178: 4891-4900 (2007); Lim et al., Journal of Immunology 177:840-851 (2006); and Lee et al., Journal of Experimental Medicine 201:1037-1044 (2005); and FIG. 18A. […] FIG. 18B.

Molecule | CCL-22 production relative to mature DC control group (dendritic cells) | endogenous CCL-22 production [1] | alveolar bone resorption / bone loss ([2]; MPs at day −1, 10, 20, VIP systemic IP, day 30, vs BlankMPs / negative controls) | Treg (FoxP3+ cell) recruitment to gingival / periodontal tissues ([2]; mouse, in vivo) | percent of FoxP3+ cells recruited by DCs (FoxP3+CD4+ T-cells; DC precursors cultured with IL-4 and GM-CSF, soluble VIP 2.5×10^−8 M or releasates) | percent of FoxP3+ cells recruited by DCs (FoxP3+CD4+ T-cells; absence of IL-4, 5× GM-CSF) | T cell migration towards a CCL22 gradient (CD4+ T cells (CCR4))
vasoactive intestinal peptide (HSDAVFTDNYTRLRKQMAVKKYLNSILN; ends and bridges not checked; UniProt P01282 125-152, looked up) [VIP, neuropeptide of twenty-eight (28) amino acids in length originally isolated from the intestine] | similar | induced endogenous production of CCL-22 | significantly less alveolar bone resorption than BlankMPs | effectively induce Treg migration to periodontal tissues | recruited a higher percentage of FoxP3+ cells than DCs that only received LPS or releasates from blank particles | recruited the same percentage of FoxP3+ cells | 
B1 |  |  |  |  |  |  | significantly greater migration of activated regulatory and effector CD4+ T cells; also recorded: activated T cells (both regulatory and effector cell populations), but not naïve T cells, migrated towards a CCL22 gradient
